The values below come from EP3441475A1, “NEUTRAL HEAT-SENSITIVE SERINE PROTEASE DERIVED FROM O. CORVINA” (priority 2017, dated 2019).

Each structure is given as a SMILES string. Like-named read-outs stand apart in the source and are kept apart here.

This experiment concerns the target T1, NHSSP (Onygena corvina, UniProt A0A0B4VM82).
T1 sequence (A0A0B4VM82 113-391): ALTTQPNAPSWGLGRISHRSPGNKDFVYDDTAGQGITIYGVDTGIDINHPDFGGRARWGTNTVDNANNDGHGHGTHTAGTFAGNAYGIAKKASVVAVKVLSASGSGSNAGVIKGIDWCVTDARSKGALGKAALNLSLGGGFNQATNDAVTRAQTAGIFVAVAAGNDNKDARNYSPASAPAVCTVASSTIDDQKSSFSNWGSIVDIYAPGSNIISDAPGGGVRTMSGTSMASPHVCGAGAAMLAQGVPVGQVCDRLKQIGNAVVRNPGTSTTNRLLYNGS
Put plainly: biochemical. It is filed as biochemical. On the procedure:
The influence of different inhibitors on the enzymatic activity of NHSSP was determined by hydrolysis of azocasein in Britton-Robinson buffer pH 6.5 supplemented with appropriate substances. The reaction was stopped by the addition of TCA to the final concentration of 293 mM, centrifuged as described above, and the absorbance of supernatants was measured at 450 nm.
The enzymatic reaction was carried out at 40°C with a final inhibitor concentration of 1 mM.

Setting [1] is: final inhibitor concentration of 1 mM, 40°C, pH 6.5.
[2] abbreviates: remaining NHSSP activity, final inhibitor concentration of 1 mM, 40°C, Britton-Robinson buffer pH 6.5, read-out: Activity (%).

As to `O=C(O)CCP(CCC(=O)O)CCC(=O)O` [TCEP], the “inhibition of NHSSP protease activity (in words)” value (“inhibition” below) under setting [1] was “did not significantly inhibit protease activity”. For the same compound, the activity at 1000 µM under setting [2] stood at 97%.

For the compound `O=S(=O)(F)Cc1ccccc1` [PMSF, phenylmethylsulfonyl fluoride], the “inhibition” value under setting [1] was “identified as an inhibitor of NHSSP”. Where the note is “remaining NHSSP activity, final inhibitor concentration of 1 mM, 40°C, Britton-Robinson buffer pH 6.5”, the “Activity (%)” value is reported as 40%.

On to `OCCS` [2-ß ME, ß-mercaptoethanol], for which the “inhibition” value under setting [1] is “did not significantly inhibit protease activity”. Besides, under setting [2], the activity at 1000 µM worked out at 99%.

For `O=C(O)CN(CCN(CC(=O)O)CC(=O)O)CC(=O)O` [EDTA, ethylenediamine tetraacetate], under “pH 6.5”, the activity at 1000 µM came out at 100% and the “inhibition” value is “did not significantly inhibit protease activity”.
